Consider eight molecules from ChEMBL document CHEMBL1135963, “Synthesis and vasorelaxant activity of new coumarin and furocoumarin derivatives” (Bioorg Med Chem Lett, 2002).

As a reminder, the IC50 is the midpoint of a concentration-inhibition curve. A higher IC50 goes with a need for much substance.

The species entered for test [1] is Rattus norvegicus. The experiment in a line: Compound was tested for the vasorelaxation in rat aorta rings pre-contracted with KCl 60 mM. The format is functional, organism-based.
The species named for test [2] is Rattus norvegicus. The experiment in a line: Compound was tested for the vasorelaxation in rat aorta rings pre-contracted with noradrenaline (NA) 10 uM. The format is functional, organism-based.
For test [3], the species on record is Rattus norvegicus. The experiment in a line: Effect on concentration dependent contractions in rat aortic rings expressed as pD2 value. It counts as functional, Aorta.
The species entered for test [4] is Rattus norvegicus. Briefly: Antagonist PD'2 which is the negative logarithm of the molar concentration of antagonist required to cause 50% depression of the maximal response of the agonist was determined. The format is functional.

As to `CC(=O)COc1ccc2c(CO)cc(=O)oc2c1OCC(C)=O`, the IC50 in test [1] and in test [2] was greater than 1000 µM each time.
As for `CC(=O)COc1c2occ(C)c2cc2c(CO)cc(=O)oc12`, the IC50 in test [1] was found to be 93.3 µM; in test [2], 52.6 µM.
In test [3], `NC[C@H](O)c1ccc(O)c(O)c1` [NOREPINEPHRINE] registered a pD2 of 6.07.
Regarding `COc1c2occc2c(OC)c2c(=O)cc(C)oc12` [KHELLIN], the IC50 in test [1] was 316 µM; in test [2], 309 µM. Further, in test [4], the “PD'2” value is recorded as 4.46.
Consider `COc1c(O)ccc2c(CO)cc(=O)oc12`, for which the IC50 in test [1] came to 1010 µM; in test [2] it was 933 µM. For the same molecule, the “PD'2” value in test [4] is recorded as 2.57.
With `Cc1coc2cc3oc(=O)cc(CO)c3cc12`, the concentration for half-maximal inhibition (IC50) turned out to be 54 µM in test [1] and 68.4 µM in test [2]. The “PD'2” value in test [4] stood at 4.73.
Regarding `COc1c2occ(C)c2cc2c(CO)cc(=O)oc12`, the IC50 in test [1] stood at 42.6 µM; in test [2], 42 µM.
The corresponding values for `CCOC(=O)COc1ccc2c(C)c(CCN(CC)CC)c(=O)oc2c1` [CHROMONAR] are greater than 1000 µM and greater than 1000 µM.
